Measured values: patent US10570179B2, “Substituted urea depsipeptide analogs as activators of the CLPP endopeptidase” (priority 2016, dated 2020)
Numbered stars: 1 amine (or outer) side, 2 acyl side, 3 side chain; on linkers, the order of the positions; unused ones are H or OH. Bridge positions count the residues as written; N and C are the ends. Square brackets hold non-standard residues; d marks the D form. Peptide text beside a SMILES is read from it. * marks the point of attachment. Piperazine(2S-CO,4-Me) = CN1CCN[C@H](C(=O)O)C1; Phe(3,5-Me2) = Cc1cc(C)cc(C[C@H](N)C(=O)O)c1; Phe(3-OMe) = COc1cccc(C[C@H](N)C(=O)O)c1; Phe(3-Me) = Cc1cccc(C[C@H](N)C(=O)O)c1; NH(4-Cl-2-F-phenyl) = Fc1cc(Cl)ccc1N*; Pro(4R-Me) = C[C@H]1CN[C@H](C(=O)O)C1; Hyp = O=C(O)[C@@H]1C[C@@H](O)CN1; NH(4-Et-phenyl) = CCc1ccc(N*)cc1; aThr = C[C@H](O)[C@H](N)C(=O)O; Pip = O=C(O)[C@@H]1CCCCN1; X3 = c1cc2c(cc1N*)OCCO2; CO = O=C([*:1])[*:2]; X2 = Fc1cc(N*)ccc1Cl

How the values were obtained:
[1] = molecular target: T1, S. aureus ClpP (Sa-ClpP) (Staphylococcus aureus, UniProt Q2G036); assay: Casein-BODIPY digestion assay (ClpP activation); type: biochemical
T1 construct: made in house; host or cells: E. coli BL21 (DE3)

[2] = Plasma protein binding, rapid equilibrium dialysis; type: in vitro ADME, mouse; settings: mouse, 4 h, 10 μM, pH 7.4
[3] = Plasma stability assay; type: in vitro ADME, human; settings: human, 10 μM
How it was run: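 Compounds at 10 μM final in human or mouse plasma, incubated at 37 °C and sampled at 0, 3, 24 and 48 h in triplicate. Reactions quenched with cold acetonitrile containing warfarin internal standard; parent measured by LC-MS. Half-life from least-squares first-order fit.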

T1 sequence (Q2G036 whole entry): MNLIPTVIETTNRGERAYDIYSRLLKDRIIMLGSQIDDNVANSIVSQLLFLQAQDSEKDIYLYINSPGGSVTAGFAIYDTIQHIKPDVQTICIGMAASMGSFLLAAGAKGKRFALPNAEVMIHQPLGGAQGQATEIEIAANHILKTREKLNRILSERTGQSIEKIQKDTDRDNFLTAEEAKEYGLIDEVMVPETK

| Structure (SMILES) | EC50 [1] [nM] | Mouse [2] [%] | Human [3] [h] | Human (hr) [3] |
| --- | --- | --- | --- | --- |
| Cc1cccc(C[C@H](NC(=O)Nc2ccc3c(c2)OCCO3)C(=O)N[C@@H]2C(=O)N3CCC[C@H]3C(=O)N3CCCC[C@H]3C(=O)N[C@@H](C)C(=O)N3C[C@H](C)C[C@H]3C(=O)O[C@H]2C)c1 [Compound 21, (S)-2-(3-(2,3-DIHYDROBENZO[B][1,4]DIOXIN-6-YL)UREIDO)-3-(M-TOLYL)-N-((2R,6S,8AS,14AS,20S,21S,23AS)-2,6,21-TRIMETHYL-5,8,14,19,23-PENTAOXOOCTADECAHYDRO-1H,5H,14H,19H-PYRIDO[2,1-I]DIPYRROLO[2,1-C:2′,1′-L][1]OXA[4,7,10,13]TETRAAZACYCLOHEXADECIN-20-YL)PROPANAMIDE] ({X3-CO}-[Phe(3-Me)][aThr]P[Pip]A[Pro(4R-Me)]; ester 2-C) | 370 ± 40 | 99.2 ± 0.1 | >50 |  |
| Cc1cc(C)cc(C[C@H](NC(=O)Nc2ccc(Cl)cc2F)C(=O)N[C@@H]2C(=O)N3CCC[C@H]3C(=O)N3CCCC[C@H]3C(=O)N[C@@H](C)C(=O)N3C[C@H](C)C[C@H]3C(=O)O[C@H]2C)c1 [Compound 4, (S)-2-(3-(4-CHLORO-2-FLUOROPHENYL)UREIDO)-3-(3,5-DIMETHYLPHENYL)-N-((2R,6S,8AS,14AS,20S,21S,23AS)-2,6,21-TRIMETHYL-5,8,14,19,23-PENTAOXOOCTADECAHYDRO-1H,5H,14H,19H-PYRIDO[2,1-I]DIPYRROLO[2,1-C:2′,1′-L][1]OXA[4,7,10,13]TETRAAZACYCLOHEXADECIN-20-YL)PROPANAMIDE] ({NH(4-Cl-2-F-phenyl)-CO}-[Phe(3,5-Me2)][aThr]P[Pip]A[Pro(4R-Me)]; ester 2-C) | 430 ± 20 | 99.8 ± 0.0 |  | >>48 hr |
| Cc1cccc(C[C@H](NC(=O)Nc2ccc(Cl)cc2F)C(=O)N[C@@H]2C(=O)N3C[C@H](O)C[C@H]3C(=O)N3CCCC[C@H]3C(=O)N[C@@H](C)C(=O)N3C[C@H](C)C[C@H]3C(=O)O[C@H]2C)c1 [Compound 6, (S)-2-(3-(4-CHLORO-2-FLUOROPHENYL)UREIDO)-N-((2R,6S,8AS,14AS,16R,20S,21S,23AS)-16-HYDROXY-2,6,21-TRIMETHYL-5,8,14,19,23-PENTAOXOOCTADECAHYDRO-1H,5H,14H,19H-PYRIDO[2,1-I]DIPYRROLO[2,1-C:2′,1′-L][1]OXA[4,7,10,13]TETRAAZACYCLOHEXADECIN-20-YL)-3-(M-TOLYL)PROPANAMIDE] ({NH(4-Cl-2-F-phenyl)-CO}-[Phe(3-Me)][aThr][Hyp][Pip]A[Pro(4R-Me)]; ester 2-C) | 230 ± 20 | 99.5 ± 0.1 | >50 |  |
| Cc1cccc(C[C@H](NC(=O)Nc2ccc(Cl)c(F)c2)C(=O)N[C@H]2COC(=O)[C@@H]3C[C@@H](C)CN3C(=O)[C@H](C)NC(=O)[C@@H]3CN(C)CCN3C(=O)[C@@H]3CCCN3C2=O)c1 [Compound 14, (S)-2-(3-(4-CHLORO-3-FLUOROPHENYL)UREIDO)-3-(M-TOLYL)-N-((6AS,12S,15AS,17R,21S,23AS)-2,17,21-TRIMETHYL-6,11,15,20,23-PENTAOXOOCTADECAHYDRO-2H,6H,11H,15H-PYRAZINO[2,1-I]DIPYRROLO[2,1-C:2′,1′-L][1]OXA[4,7,10,13]TETRAAZACYCLOHEXADECIN-12-YL)PROPANAMIDE] ({X2-CO}-[Phe(3-Me)]SP[Piperazine(2S-CO,4-Me)]A[Pro(4R-Me)]; ester 2-C) | 1410 ± 200 | 98.9 ± 0.1 | 97.65 ± 17.0 |  |
| CCc1ccc(NC(=O)N[C@@H](Cc2cccc(C)c2)C(=O)N[C@H]2COC(=O)[C@@H]3C[C@@H](C)CN3C(=O)[C@H](C)NC(=O)[C@@H]3CN(C)CCN3C(=O)[C@@H]3CCCN3C2=O)cc1 [Compound 16, (S)-2-(3-(4-ETHYLPHENYL)UREIDO)-3-(M-TOLYL)-N-((6AS,12S,15AS,17R,21S,23AS)-2,17,21-TRIMETHYL-6,11,15,20,23-PENTAOXOOCTADECAHYDRO-2H,6H,11H,15H-PYRAZINO[2,1-I]DIPYRROLO[2,1-C:2′,1′-L][1]OXA[4,7,10,13]TETRAAZACYCLOHEXADECIN-12-YL)PROPANAMIDE] ({NH(4-Et-phenyl)-CO}-[Phe(3-Me)]SP[Piperazine(2S-CO,4-Me)]A[Pro(4R-Me)]; ester 2-C) | 630 ± 100 | 97.1 ± 0.1 | >50 |  |
| COc1cccc(C[C@H](NC(=O)Nc2ccc(Cl)cc2F)C(=O)N[C@H]2COC(=O)[C@@H]3C[C@@H](C)CN3C(=O)[C@H](C)NC(=O)[C@@H]3CN(C)CCN3C(=O)[C@@H]3CCCN3C2=O)c1 [Compound 19, (S)-2-(3-(4-CHLORO-2-FLUOROPHENYL)UREIDO)-3-(3-METHOXYPHENYL)-N-((6AS,12S,15AS,17R,21S,23AS)-2,17,21-TRIMETHYL-6,11,15,20,23-PENTAOXOOCTADECAHYDRO-2H,6H,11H,15H-PYRAZINO[2,1-I]DIPYRROLO[2,1-C:2′,1′-L][1]OXA[4,7,10,13]TETRAAZACYCLOHEXADECIN-12-YL)PROPANAMIDE] ({NH(4-Cl-2-F-phenyl)-CO}-[Phe(3-OMe)]SP[Piperazine(2S-CO,4-Me)]A[Pro(4R-Me)]; ester 2-C) | 2520 ± 200 | 98.3 ± 0.1 | 62.38 |  |
